Data taken from patent US20130310256A1, “HERBICIDAL COMPOSITIONS COMPRISING 4-AMINO-3-CHLORO-5-FLUORO-6-(4-CHLORO-2-FLUORO-3-METHOXYPHENYL) PYRIDINE-2-CARBOXYLIC ACID OR A DERIVATIVE THEREOF AND VLCFA AND LIPID SYNTHESIS INHIBITING HERBICIDES” (DOW AGROSCIENCES LLC, priority 2008, published 2013).
Where “and” joins values, the source holds several entries; their conditions need not be identical. Identical values can stand only once.

Legend:
FIMMI = test: Example II: in-water applied weed control, transplanted paddy rice, greenhouse; type: in vivo, Fimbristylis miliacea (L.) Vahl (globe fringerush); conditions: for Visual Weed Control FIMMI Obs: 19 DAA
Description: Weed seeds or nutlets of the desired test plant species were planted in puddled soil (mud) prepared by mixing a shredded, non-sterilized mineral soil (50.5 percent silt, 25.5 percent clay, and 24 percent sand, with a pH of about 7.6 and an organic matter content of about 2.9 percent) and water at a 1:1 volumetric ratio. The prepared mud was dispensed in 365 mL aliquots into 16-ounce (oz.) non-perforated plastic pots with a surface area of 86.59 square centimeters (cm^2) leaving a headspace of 3 centimeters (cm) in each pot. Mud was allowed to dry overnight prior to planting or transplanting. Rice seeds were planted in Sun Gro MetroMix® 306 planting mixture, which typically has a pH of 6.0 to 6.8 and an organic matter content of about 30 percent, in plastic plug trays. Seedlings at the second or third leaf stage of growth were transplanted into 840 mL of mud contained in 32-oz. non-perforated plastic pots with a surface area of 86.59 cm^2 4 days prior to herbicide application. The paddy was created by filling the headspace of the pots with 2.5 to 3 cm of water. When required to ensure good germination and healthy plants, a fungicide treatment and/or other chemical or physical treatment was applied. The plants were grown for 4-22 days in a greenhouse with an approximate 14 hr photoperiod which was maintained at about 29′C during the day and 26° C. during the night. Nutrients were added as Osmocote® (19:6:12, N:P:K+ minor nutrients) at 2 g per 16-oz. pot and 4 g per 32-oz. pot. Water was added on a regular basis to maintain the paddy flood, and supplemental lighting was provided with overhead metal halide 1000-Watt lamps as necessary. The plants were employed for testing when they reached the first through fourth true leaf stage.
Treatments consisted of the acid or esters of 4-amino-3-chloro-5-fluoro-6-(4-chloro-2-fluoro-3-methoxy-phenyl)pyridine-2-carboxylic acid (compound A) each formulated as an SC (suspension concentrate) and various herbicidal components alone and in combination. Forms of compound A were applied on an acid equivalent basis.
The herbicidal components were applied on an active ingredient basis and included very long chain fatty acid (VLCFA) synthesis-inhibiting and fatty acid/lipid synthesis-inhibiting herbicides acetochlor (technical grade material), acetochlor+dichlormid formulateded as Topnotch®, pretilachlor (technical grade material), butachlor formulated as Butachlor EC, fentrazamide formulated as Fentrazamide EC, thiobencarb formulated as Bolero® 8EC, cafenstrole formulated as Himeadow® WP or Lapost® Flowable, benfuresate formulated as Full Shot®, anilofos (technical grade material), mefenacet (technical grade material), molinate (technical grade material), and thenylchlor (technical grade material).
Treatment requirements for each compound or herbicidal component were calculated based upon the rates being tested, the concentration of active ingredient or acid equivalent in the formulation, an application volume of 2 mL per component per pot, and an application area of 86.59 cm^2 per pot.
For formulated compounds, a measured amount was placed in an individual 100 or 200 mL glass vial and was dissolved in a volume of 1.25% (v/v) Agri-Dex® crop oil concentrate to obtain application solutions.
For technical grade compounds, a weighed amount was placed in an individual 100 to 200 mL glass vial and was dissolved in a volume of acetone to obtain concentrated stock solutions. […] The concentrated stock solutions obtained were diluted with an equivalent volume of an aqueous mixture containing 2.5% (v/v) crop oil concentrate so that the final application solutions contained 1.25% (v/v) crop oil concentrate.
Applications were made by injecting with a pipetter appropriate amounts of the application solutions, individually and sequentially, into the aqueous layer of the paddy. Control plants were treated in the same manner with the solvent blank. […]

ECHCO = test: Example I: postemergence foliar-applied weed control, greenhouse; type: in vivo, Echinochloa colona (L.) Link (junglerice); conditions: for Visual Weed Control Obs: 20 DAA
Summary of the method: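 Plants grown in loam/sandy loam–calcareous grit soil (80:20) in greenhouse, 14 hr photoperiod, about 29° C. day/26° C. night, treated postemergence at first to fourth true leaf stage. Foliar spray at 187 L/ha with 1.25% (v/v) crop oil concentrate; Compound A dosed on acid equivalent basis, partners on active ingredient basis.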

COc1c(Cl)ccc(-c2nc(C(=O)OCc3ccccc3)c(Cl)c(N)c2F)c1F [Compound A Benzyl Ester, benzyl ester of 4-amino-3-chloro-5-fluoro-6-(4-chloro-2-fluoro-3-methoxy-phenyl)pyridine-2-carboxylic acid]
Visual Weed Control (%) - 20 DAA FIMMI Obs (FIMMI; 4.38 gae/ha): 30% | Visual Weed Control FIMMI Obs (FIMMI; 8 gae/ha): 0% | Visual Weed Control (%) - 20 DAA FIMMI Obs (FIMMI; 8.75 gae/ha): 60% | Visual Weed Control FIMMI Obs (FIMMI; 16 gae/ha): 0% | Visual Weed Control FIMMI Obs (FIMMI; 32 gae/ha): 85% | Visual Weed Control (%) - 22 DAA ECHCO Obs (ECHCO; 5.3 gae/ha, foliar): 30% | Visual Weed Control (%) - 19 DAA ECHCO Obs (ECHCO; 8 gae/ha, foliar): 65% | Visual Weed Control (%) - 20 DAA ECHCO Obs (ECHCO; 8 gae/ha, foliar): 40% | Visual Weed Control (%) - 22 DAA ECHCO Obs (ECHCO; 10.6 gae/ha, foliar): 55% | Visual Weed Control (%) - 20 DAA ECHCO Obs (ECHCO; 16 gae/ha, foliar): 60% | Visual Weed Control Obs (ECHCO; 4.38 gae/ha): 60% | Visual Weed Control Obs (ECHCO; 8.75 gae/ha): 85% and 70% | Visual Weed Control (%) - 20 DAA ECHCO Obs (ECHCO; 32 gae/ha, foliar): 90%

COc1c(Cl)ccc(-c2nc(C(=O)O)c(Cl)c(N)c2F)c1F [Compound A Acid, 4-amino-3-chloro-6-(4-chloro-2-fluoro-3-methoxyphenyl)-5-fluoropyridine-2-carboxylic acid]
Visual Weed Control (%) - 20 DAA FIMMI Obs (FIMMI; 8.75 gae/ha): 50% | Visual Weed Control (%) - 22 DAA ECHCO Obs (ECHCO; 5.3 gae/ha, foliar): 65% | Visual Weed Control (%) - 22 DAA ECHCO Obs (ECHCO; 10.6 gae/ha, foliar): 65% | Visual Weed Control Obs (ECHCO; 4.38 gae/ha): 65% and 40% and 70% | Visual Weed Control Obs (ECHCO; 8.75 gae/ha): 85% and 60%

CCS(=O)(=O)Oc1ccc2c(c1)C(C)(C)CO2 [Benfuresate, 2,3-dihydro-3,3-dimethyl-5-benzofuranyl ethanesulfonate]
Visual Weed Control (%) - 22 DAA ECHCO Obs (ECHCO; 75 gai/ha, foliar): 0% | Visual Weed Control (%) - 22 DAA ECHCO Obs (ECHCO; 150 gai/ha, foliar): 0% | Visual Weed Control (%) - 22 DAA ECHCO Obs (ECHCO; 300 gai/ha, foliar): 0%

CCCOCCN(C(=O)CCl)c1c(CC)cccc1CC [Pretilachlor, 2-chloro-N-(2,6-diethylphenyl)-N-(2-propoxyethyl)acetamide]
Visual Weed Control (%) - 20 DAA FIMMI Obs (FIMMI; 75 gai/ha): 40% | Visual Weed Control (%) - 20 DAA FIMMI Obs (FIMMI; 150 gai/ha): 45% | Visual Weed Control Obs (ECHCO; 37.5 gai/ha): 0% | Visual Weed Control Obs (ECHCO; 75 gai/ha): 0% | Visual Weed Control Obs (ECHCO; 150 gai/ha): 0%

CCN(CC)C(=O)n1cnc(S(=O)(=O)c2c(C)cc(C)cc2C)n1 [Cafenstrole, N,N-diethyl-3-[(2,4,6-trimethylphenyl)sulfonyl]-1H-1,2,4-triazole-1-carboxamide]
Visual Weed Control Obs (ECHCO; 26.25 gai/ha Himeadow WP): 10% | Visual Weed Control Obs (ECHCO; 52.5 gai/ha Himeadow WP): 10% | Visual Weed Control Obs (ECHCO; 105 gai/ha Himeadow WP): 10%
